Assay results taken from US12662494B2, “Optically active bridged piperidine derivative” (Sumitomo Pharma Co., Ltd., priority 2018, dated 2026).

How the values were obtained:
RS4; 11 cells = assay: Test 2: inhibition of cell proliferation, RS4;11; assay type: cell-based; conditions: for IC50: RS4;11 cells, 7 days, PrestoBlue cell viability; for cell proliferation inhibition activity, good (in words) / cell proliferation inhibitory activity, potent (in words): summary of Test 2 table, RS4;11 and MOLM-13
Procedure: (§1) Test 2: Test for Evaluating the Inhibition of Cell Proliferation
(§2) RS4; 11 cells were obtained from American Type Culture Collection (ATCC). The cells were cultured at 37° C. in the presence of 5% CO2 in RPMI 1640 medium containing 10% fetal bovine serum and 1% penicillin/streptomycin. MOLM-13 cells were separately obtained from DSMZ (Deutsche Sammlung von Mikroorganismen und Zellkulturen GmbH). The cells were cultured at 37° C. in the presence of 5% CO2 in RPMI 1640 medium containing […] and 1% penicillin/streptomycin.
(§3) The cells were plated to a 96-well plate in 2000 cells/well, each test compound was added thereto to adjust the final concentration of DMSO to 0.1% of DMSO, and the cells were cultured for 7 days. After the cultivation, the cell viability was calculated with PrestoBlue™ Cell Viability Reagent (Invitrogen, A13261). The IC50 value was calculated from a survival curve, that corresponds to the concentration of the test compound at which the cell proliferation inhibition rate is 50%.

MOLM-13 cells = assay: Test 2: inhibition of cell proliferation, MOLM-13; assay type: cell-based; conditions: 7 days, PrestoBlue cell viability
Procedure: as §1, §2, §3

[1] = Test 4: pharmacokinetic study, oral, mouse; conditions: for AUC(0-t): male, NOD.CB17-Prkdcscid/J, plasma, po, 100 mg/kg; for compound-exposure in plasma (in words): summary of Test 4 table, oral 100 mg/kg
Procedure: Test 4: Pharmacokinetic Study
The test compound suspended in 0.5% methylcellulose was orally administered to 7-week-old male NOD. CB17-Prkdcscid/J mouse in a dose of 100 mg/kg. The blood sample was taken from jugular vein without anesthesia over time for 24 hours. The blood sample was centrifuged to obtain plasma. The plasma was pre-treated by methanol extraction method, and then analyzed with an LC-MS/MS to determine the concentration of the test compound. Based on the data from 0 hour after the administration until the time (t) when there was the final detection in the plasma, AUC was calculated by trapezoidal method.

SMILES	IC50 (RS4; 11 cells)	IC50 (MOLM-13 cells)	IC50 (RS4; 11 cells; Homo sapiens, 168 h)	IC50 (MOLM-13 cells; Homo sapiens, 168 h)	AUC(0-t) [1]	compound-exposure in plasma (in words) [1]	cell proliferation inhibition activity, good (in words) (RS4; 11 cells)	cell proliferation inhibitory activity, potent (in words) (RS4; 11 cells)
C=C1C[C@@H]2CC[C@H]1[C@@H](C(=O)N1CCC3(CC1)CN(c1c(C#N)cnc4sc(CC(F)(F)F)cc14)C3)N2 [Example 24, 4-{7-[(1S,3S,4R)-5-(^2H2)methylidene-2-azabicyclo[2.2.2]octane-3-carbonyl]-2,7-diazaspiro[3.5]nonan-2-yl}-2-(2,2,2-trifluoroethyl)thieno[2,3-b]pyridine-5-carbonitrile]	< 30 nM	< 30 nM						
C=C1C[C@@H]2CC[C@H]1[C@@H](C(=O)N1CCC3(CC1)CN(c1c(C#N)cnc4sc(CC(F)(F)F)cc14)C3)N2 [Example 28, 4-{7-[(1S,3S,4R)-5-Methylidene-2-azabicyclo[2.2.2]octane-3-carbonyl]-2,7-diazaspiro[3.5]nonan-2-yl}-2-(2,2,2-trifluoroethyl)thieno[2,3-b]pyridine-5-carbonitrile]			70 nM	60 nM	11600 ng·h/mL	good compound-exposure in plasma		
C=C1C[C@@H]2CC[C@H]1[C@@H](C(=O)N1CC3(C1)CN(c1c(C(F)(F)F)cnc4sc(CC(F)(F)F)cc14)C3)N2 [Example 17, [(1S,3S,4R)-5-(^2H2)methylidene-2-azabicyclo[2.2.2]octan-3-yl]{6-[2-(2,2,2-trifluoroethyl)-5-(trifluoromethyl)thieno[2,3-b]pyridin-4-yl]-2,6-diazaspiro[3.3]heptan-2-yl}methanone]	< 30 nM	< 30 nM						
C=C1C[C@@H]2C[C@H]1[C@@H](C(=O)N1CCC3(CC1)CN(c1c(C(F)(F)F)cnc4sc(CC(F)(F)F)cc14)C3)N2 [Example 23, [(1S,3S,4R)-5-methylidene-2-azabicyclo[2.2.1]heptan-3-yl]{2-[2-(2,2,2-trifluoroethyl)-5-(trifluoromethyl)thieno[2,3-b]pyridin-4-yl]-2,7-diazaspiro[3.5]nonan-7-yl}methanone]			100 nM	110 nM				
C=C1C[C@@H]2CC[C@H]1[C@@H](C(=O)N1CCC3(CC1)CN(c1c(C(F)(F)F)cnc4sc(CC(F)(F)F)cc14)C3)N2 [Example 21, [(1S,3S,4R)-5-(^2H2)methylidene-2-azabicyclo[2.2.2]octan-3-yl]{2-[2-(2,2,2-trifluoroethyl)-5-(trifluoromethyl)thieno[2,3-b]pyridin-4-yl]-2,7-diazaspiro[3.5]nonan-7-yl}methanone]	< 30 nM	< 30 nM						
N#Cc1cnc2sc(CC(F)(F)F)cc2c1N1CC2(CCN(C(=O)[C@H]3N[C@H]4CC[C@@H]3C[C@@H]4CC3CC3)CC2)C1 [Example 25, 4-{7-[(1S,3S,4R,6S)-6-(cyclopropylmethyl)-2-azabicyclo[2.2.2]octane-3-carbonyl]-2,7-diazaspiro[3.5]nonan-2-yl}-2-(2,2,2-trifluoroethyl)thieno[2,3-b]pyridine-5-carbonitrile]			< 30 nM	40 nM			good cell proliferation inhibition activity	potent cell proliferation inhibitory activity
O=C([C@H]1N[C@H]2CC[C@@H]1C[C@@H]2CC1CC1)N1CCC2(CC1)CN(c1c(C(F)(F)F)cnc3sc(CC(F)(F)F)cc13)C2 [Example 22, [(1S,3S,4R,6S)-6-(cyclopropylmethyl)-2-azabicyclo[2.2.2]octan-3-yl]{2-[2-(2,2,2-trifluoroethyl)-5-(trifluoromethyl)thieno[2,3-b]pyridin-4-yl]-2,7-diazaspiro[3.5]nonan-7-yl}methanone]			< 30 nM	30 nM			good cell proliferation inhibition activity	potent cell proliferation inhibitory activity
[2H]C([2H])=C1C[C@@H]2CC[C@H]1[C@@H](C(=O)N1CC3(C1)CN(c1c(C(F)(F)F)cnc4sc(CC(F)(F)F)cc14)C3)N2 [Example 17, [(1S,3S,4R)-5-(^2H2)methylidene-2-azabicyclo[2.2.2]octan-3-yl]{6-[2-(2,2,2-trifluoroethyl)-5-(trifluoromethyl)thieno[2,3-b]pyridin-4-yl]-2,6-diazaspiro[3.3]heptan-2-yl}methanone]							good cell proliferation inhibition activity	potent cell proliferation inhibitory activity
C=C1C[C@@H]2CC[C@H]1[C@@H](C(=O)N1CCC3(CC1)CN(c1c(C(F)(F)F)cnc4sc(CC(F)(F)F)cc14)C3)N2 [Example 27, [(1S,3S,4R)-5-Methylidene-2-azabicyclo[2.2.2]octan-3-yl]{2-[2-(2,2,2-trifluoroethyl)-5-(trifluoromethyl)thieno[2,3-b]pyridin-4-yl]-2,7-diazaspiro[3.5]nonan-7-yl}methanone]			50 nM	70 nM	17300 ng·h/mL	good compound-exposure in plasma	good cell proliferation inhibition activity	potent cell proliferation inhibitory activity
C=C1C[C@@H]2C[C@H]1[C@@H](C(=O)N1CCC3(CC1)CN(c1c(C#N)cnc4sc(CC(F)(F)F)cc14)C3)N2 [Example 26, 4-{7-[(1S,3S,4R)-5-methylidene-2-azabicyclo[2.2.1]heptane-3-carbonyl]-2,7-diazaspiro[3.5]nonan-2-yl}-2-(2,2,2-trifluoroethyl)thieno[2,3-b]pyridine-5-carbonitrile]			300 nM	300 nM				
